Test results: US8940754B2, “10′-fluorinated Vinca alkaloids provide enhanced biological activity against MDR cancer cells” (priority 2010, dated 2015)
Where two headings read alike, the source gives them in different places.

What was measured:
HCT116/VM46 = assay: cells; assay type: cell-based, human; details: for IC50: Homo sapiens
HCT116 = assay: cells; assay type: cell-based, human; details: Homo sapiens
L1210 = assay: cells; assay type: cell-based, mouse; details: Mus musculus
[1] = test system: L1210, HCT116, HCT116/VM46; assay: cytotoxic activity in the cell-based assays, overall comparison with the parent compound; details: for enhancement of cytotoxic activity by C-10′ fluorine substitution: vs natural product without fluorine; for fold more potent than the natural products themselves: vs vinblastine / vincristine, Table 2C
[2] = HCT-116/VM46, read-out: IC50 (nM) HCT116/VM46
[3] = HCT-116, read-out: IC50 (nM) HCT116
[4] = L1210, read-out: IC50 (nM) L1210
[5] = HCT-116/VM46, Table 2A, C10′-substituted anhydrovinblastines, single evaluations, read-out: IC50 (nM) HCT116/VM46
[6] = HCT-116, Table 2A, C10′-substituted anhydrovinblastines, single evaluations, read-out: IC50 (nM) HCT116
[7] = L1210, Table 2A, C10′-substituted anhydrovinblastines, single evaluations, read-out: IC50 (nM) L1210
[8] = HCT-116/VM46, Table 2B, C10′-substituted vinblastines, single evaluations, read-out: IC50 (nM) HCT116/VM46
[9] = HCT-116, Table 2B, C10′-substituted vinblastines, single evaluations, read-out: IC50 (nM) HCT116
[10] = L1210, Table 2B, C10′-substituted vinblastines, single evaluations, read-out: IC50 (nM) L1210

SMILES | IC50 (HCT116/VM46; [5]) | IC50 (HCT116; [6]) | IC50 (L1210; [7]) | IC50 (HCT116/VM46; [8]) | IC50 (HCT116; [9]) | IC50 (L1210; [10]) | other results
CCC1=C[C@@H]2CN(CCc3c([nH]c4ccc(C#N)cc34)[C@@](C(=O)OC)(c3cc4c(cc3OC)N(C)C3C(O)(C(=O)OC)[C@H](OC(C)=O)[C@]5(CC)C=CCN6CC[C@]43[C@@H]65)C2)C1 (some centres unmarked) [Compound 15a, 10′-cyanoanhydrovinblastine] | – | – | – | – | – | – | IC50 (HCT116/VM46; [2]): 920 nM; IC50 (HCT116; [3]): 70 nM; IC50 (L1210; [4]): 65 nM
CCC1=C[C@@H]2CN(CCc3c([nH]c4ccc(I)cc34)[C@@](C(=O)OC)(c3cc4c(cc3OC)N(C)C3C(O)(C(=O)OC)[C@H](OC(C)=O)[C@]5(CC)C=CCN6CC[C@]43[C@@H]65)C2)C1 (some centres unmarked) [Compound 16a, 10′-iodoanhydrovinblastine] | 1800 nM | 600 nM | 620 nM | – | – | – | –
CC[C@]1(O)C[C@@H]2CN(CCc3c([nH]c4ccc(I)cc34)[C@@](C(=O)OC)(c3cc4c(cc3OC)N(C)C3C(O)(C(=O)OC)[C@H](OC(C)=O)[C@]5(CC)C=CCN6CC[C@]43[C@@H]65)C2)C1 (some centres unmarked) [Compound 16b, 10′-iodovinblastine] | – | – | – | 840 nM | 60 nM | 55 nM | –
CCC1=C[C@@H]2CN(CCc3c([nH]c4ccc(Br)cc34)[C@@](C(=O)OC)(c3cc4c(cc3OC)N(C)C3C(O)(C(=O)OC)[C@H](OC(C)=O)[C@]5(CC)C=CCN6CC[C@]43[C@@H]65)C2)C1 (some centres unmarked) [Compound 17a, 10′-bromoanhydrovinblastine] | 860 nM | 70 nM | 65 nM | – | – | – | –
CC[C@]1(O)C[C@@H]2CN(CCc3c([nH]c4ccc(Br)cc34)[C@@](C(=O)OC)(c3cc4c(cc3OC)N(C)C3C(O)(C(=O)OC)[C@H](OC(C)=O)[C@]5(CC)C=CCN6CC[C@]43[C@@H]65)C2)C1 (some centres unmarked) [Compound 17b, 10′-bromo-vinblastine] | – | – | – | 270 nM | 8.6 nM | 8 nM | –
CCC1=C[C@@H]2CN(CCc3c([nH]c4ccc(Cl)cc34)[C@@](C(=O)OC)(c3cc4c(cc3OC)N(C)C3C(O)(C(=O)OC)[C@H](OC(C)=O)[C@]5(CC)C=CCN6CC[C@]43[C@@H]65)C2)C1 (some centres unmarked) [Compound 18a, 10′-chloroanhydrovinblastine] | 800 nM | 70 nM | 60 nM | – | – | – | –
CC[C@]1(O)C[C@@H]2CN(CCc3c([nH]c4ccc(Cl)cc34)[C@@](C(=O)OC)(c3cc4c(cc3OC)N(C)C3C(O)(C(=O)OC)[C@H](OC(C)=O)[C@]5(CC)C=CCN6CC[C@]43[C@@H]65)C2)C1 (some centres unmarked) [Compound 18b, 10′-chlorovinblastine] | – | – | – | 720 nM | 7.6 nM | 6.2 nM | –
CCC1=C[C@@H]2CN(CCc3c([nH]c4ccc(F)cc34)[C@@](C(=O)OC)(c3cc4c(cc3OC)N(C)C3C(O)(C(=O)OC)[C@H](OC(C)=O)[C@]5(CC)C=CCN6CC[C@]43[C@@H]65)C2)C1 (some centres unmarked) [Compound 19a, 10′-fluoroanhydrovinblastine] | – | – | – | – | – | – | IC50 (HCT116/VM46; [2]): 290 nM; enhancement of cytotoxic activity by C-10′ fluorine substitution [1]: about 8 fold; IC50 (HCT116; [3]): 50 nM; IC50 (L1210; [4]): 30 nM
CC[C@]1(O)C[C@@H]2CN(CCc3c([nH]c4ccc(F)cc34)[C@@](C(=O)OC)(c3cc4c(cc3OC)N(C)C3C(O)(C(=O)OC)[C@H](OC(C)=O)[C@]5(CC)C=CCN6CC[C@]43[C@@H]65)C2)C1 (some centres unmarked) [Compound 19b, 10′-fluorovinblastine] | – | – | – | 80 nM | 0.9 nM | 0.7 nM | increased activity against vinblastine resistant cell line (HCT116/VM46) (HCT116/VM46; vs vinblastine): about 8 fold; enhancement of cytotoxic activity by C-10′ fluorine substitution [1]: about 8 fold; fold more potent than the natural products themselves [1]: about 8 fold
CCC1=C[C@@H]2CN(CCc3c([nH]c4ccc(SC)cc34)[C@@](C(=O)OC)(c3cc4c(cc3OC)N(C)C3C(O)(C(=O)OC)[C@H](OC(C)=O)[C@]5(CC)C=CCN6CC[C@]43[C@@H]65)C2)C1 (some centres unmarked) [Compound 20a, 10′-thiomethylanhydrovinblastine] | 770 nM | 85 nM | 60 nM | – | – | – | –
CC[C@]1(O)C[C@@H]2CN(CCc3c([nH]c4ccc(SC)cc34)[C@@](C(=O)OC)(c3cc4c(cc3OC)N(C)C3C(O)(C(=O)OC)[C@H](OC(C)=O)[C@]5(CC)C=CCN6CC[C@]43[C@@H]65)C2)C1 (some centres unmarked) [Compound 20b, 10′-thiomethylvinblastine] | – | – | – | 740 nM | 35 nM | 45 nM | –
CCC1=C[C@@H]2CN(CCc3c([nH]c4ccc(C)cc34)[C@@](C(=O)OC)(c3cc4c(cc3OC)N(C)C3C(O)(C(=O)OC)[C@H](OC(C)=O)[C@]5(CC)C=CCN6CC[C@]43[C@@H]65)C2)C1 (some centres unmarked) [Compound 21a, 10′-methylanhydrovinblastine] | 640 nM | 65 nM | 65 nM | – | – | – | –
CC[C@]1(O)C[C@@H]2CN(CCc3c([nH]c4ccc(C)cc34)[C@@](C(=O)OC)(c3cc4c(cc3OC)N(C)C3C(O)(C(=O)OC)[C@H](OC(C)=O)[C@]5(CC)C=CCN6CC[C@]43[C@@H]65)C2)C1 (some centres unmarked) [Compound 21b, 10′-methylvinblastine] | – | – | – | 600 nM | 7.8 nM | 7.8 nM | –
CCC1=C[C@@H]2CN(CCc3c([nH]c4ccc(OC)cc34)[C@@](C(=O)OC)(c3cc4c(cc3OC)N(C)C3C(O)(C(=O)OC)[C@H](OC(C)=O)[C@]5(CC)C=CCN6CC[C@]43[C@@H]65)C2)C1 (some centres unmarked) [Compound 22a, 10′-methoxyanhydrovinblastine] | 5500 nM | 640 nM | 550 nM | – | – | – | –
CC[C@]1(O)C[C@@H]2CN(CCc3c([nH]c4ccc(OC)cc34)[C@@](C(=O)OC)(c3cc4c(cc3OC)N(C)C3C(O)(C(=O)OC)[C@H](OC(C)=O)[C@]5(CC)C=CCN6CC[C@]43[C@@H]65)C2)C1 (some centres unmarked) [Compound 22b, 10′-methoxyvinblastine] | – | – | – | > 10000 nM | 720 nM | 670 nM | –
CC[C@]1(O)C[C@@H]2CN(CCc3c([nH]c4ccc(F)cc34)[C@@](C(=O)OC)(c3cc4c(cc3OC)N(C=O)C3C(O)(C(=O)OC)[C@H](OC(C)=O)[C@]5(CC)C=CCN6CC[C@]43[C@@H]65)C2)C1 (some centres unmarked) [Compound 28, 10′-fluorovincristine] | – | – | – | – | – | – | IC50 (HCT116/VM46; HCT-116/VM46, Table 2C, side-by-side, multiple examinations with several independent samples, read-out: IC50 (nM) HCT116/VM46): 90 nM; fold more potent than the natural products themselves [1]: about 8 fold; IC50 (HCT116; HCT-116, Table 2C, side-by-side, multiple examinations with several independent samples, read-out: IC50 (nM) HCT116): 1 nM; IC50 (L1210; L1210, Table 2C, side-by-side, multiple examinations with several independent samples, read-out: IC50 (nM) L1210): 0.7 nM
